≈ marks a conversion by molar mass, not a printed value.
Tests used:
[1] = system: Aspergillus lentulus; assay: checkerboard drug interaction (FICI, MICc); format: cell-based;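 note: simplified diagonal checkerboard screen pairing antifungals with FPPS inhibitors, with the interaction index calculated under the Loewe additivity model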
Protocol: (§1) Drug interactions between antifungals and FPPS inhibitors were investigated using a simplified checkerboard diagonal screening method ([45]). […] FICIs were determined according to the Loewe additivity model ([17]).

[2] = system: Candida tropicalis; assay: MIC broth microdilution (CLSI); format: cell-based; conditions: Candida tropicalis M230640
Protocol: (§2) Antifungal susceptibility was determined by broth microdilution according to the CLSI guidelines described in M27-Ed4 ([16]).

[3] = system: Aspergillus niger; assay: MIC broth microdilution (CLSI); format: cell-based; conditions: Aspergillus niger 111
Protocol: as §2

[4] = system: Epidermophyton floccosum; assay: MIC broth microdilution (CLSI); format: cell-based; conditions: Epidermophyon floccosum R-113
Protocol: as §2

[5] = system: Cryptococcus bacillisporus; assay: MIC broth microdilution (CLSI); format: cell-based; conditions: Cryptococcus bacillisporus NIH179
Protocol: as §2

[6] = system: Fusarium oxysporum; assay: checkerboard drug interaction (FICI, MICc); format: cell-based;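 note: simplified diagonal checkerboard screen pairing antifungals with FPPS inhibitors, FICI calculated under the Loewe additivity model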
Protocol: as §1

[7] = system: Epidermophyton floccosum; assay: checkerboard drug interaction (FICI, MICc);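 note: simplified diagonal checkerboard screen pairing antifungals with FPPS inhibitors, FICI calculated under the Loewe additivity model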
Protocol: as §1

[8] = system: Cryptococcus gattii; assay: MIC broth microdilution (CLSI); format: cell-based; conditions: Cryptococcus gattii PNG27
Protocol: as §2

[9] = system: Trichophyton interdigitale; assay: checkerboard drug interaction (FICI, MICc);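 note: simplified diagonal checkerboard screen pairing antifungals with FPPS inhibitors, FICI values calculated under the Loewe additivity model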
Protocol: as §1

[10] = system: Microsporum canis; assay: MIC broth microdilution (CLSI); conditions: Microsporum canis R-232
Protocol: as §2

[11] = system: Paraphyton cookei; assay: checkerboard drug interaction (FICI, MICc);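 note: simplified diagonal checkerboard screen pairing an antifungal with an FPPS inhibitor, FICI computed under the Loewe additivity model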
Protocol: as §1

[12] = system: Nannizzia nana; assay: MIC broth microdilution (CLSI); format: cell-based; conditions: Nannizzia nana R-133
Protocol: as §2

[13] = system: Cryptococcus tetragattii; assay: MIC broth microdilution (CLSI); format: cell-based; conditions: Cryptococcus tetragattii WM779
Protocol: as §2

[14] = system: Aspergillus terreus; assay: MIC broth microdilution (CLSI); format: cell-based; conditions: Aspergillus terreus 75-16-089-2500
Protocol: as §2

[15] = system: Cryptococcus deneoformans; assay: checkerboard drug interaction (FICI, MICc); format: cell-based;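 note: simplified diagonal checkerboard screen pairing antifungals with FPPS inhibitors, FICI calculated under the Loewe additivity model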
Protocol: as §1

[16] = system: Candida dubliniensis; assay: checkerboard drug interaction (FICI, MICc); format: cell-based;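 note: simplified diagonal checkerboard screen pairing antifungals with FPPS inhibitors, FICI calculated under the Loewe additivity model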
Protocol: as §1

[17] = system: Nannizzia gypsea; assay: checkerboard drug interaction (FICI, MICc);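 note: simplified diagonal checkerboard screen pairing antifungals with FPPS inhibitors, FICI derived using the Loewe additivity model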
Protocol: as §1

[18] = system: Fusarium solani; assay: MIC broth microdilution (CLSI); conditions: Fusarium solani 04-16-056-1862
Protocol: as §2

## O=P(O)(O)C(O)(Cn1ccnc1)P(=O)(O)O [ZOL, zoledronate]
[1]; VOR:ZOL
  FICI: 0.63
[1]; ZOL with 5FC
  bisphosphonate MICc: 512
[1]; ZOL with AMB
  bisphosphonate MICc: 32
[1]; ZOL with CAS
  bisphosphonate MICc: 64
[1]; ZOL with FLC
  bisphosphonate MICc: 2
[1]; ZOL with ITR
  bisphosphonate MICc: 32
[1]; ZOL with KET
  bisphosphonate MICc: 64
[1]; ZOL with VOR
  bisphosphonate MICc: 256
[2]
  MIC / MEC: 128 µg/mL (≈ 470 µM)
[3]
  MIC / MEC: >256 µg/mL
[4]
  MIC / MEC: 64 µg/mL (≈ 235 µM)
[5]
  MIC / MEC: 128 µg/mL (≈ 470 µM)
[6]; 5FC:ZOL
  FICI: ≥4
[6]; AMB:ZOL
  FICI: 0.63
[6]; CAS:ZOL
  FICI: 2.5
[6]; FLC:ZOL
  FICI: 0.75
[6]; ITR:ZOL
  FICI: 0.5
[6]; KET:ZOL
  FICI: 0.75
[6]; VOR:ZOL
  FICI: 1.02
[6]; ZOL with 5FC
  bisphosphonate MICc: 256
[6]; ZOL with AMB
  bisphosphonate MICc: 64
[6]; ZOL with CAS
  bisphosphonate MICc: 256
[6]; ZOL with FLC
  bisphosphonate MICc: 256
[6]; ZOL with ITR
  bisphosphonate MICc: 128
[6]; ZOL with KET
  bisphosphonate MICc: 256
[6]; ZOL with VOR
  bisphosphonate MICc: 8
[7]; 5FC:ZOL
  FICI: 1.5
[7]; AMB:ZOL
  FICI: 1
[7]; CAS:ZOL
  FICI: 2.17
[7]; FLC:ZOL
  FICI: 0.63
[7]; ITR:ZOL
  FICI: 0.63
[7]; KET:ZOL
  FICI: 0.5
[7]; VOR:ZOL
  FICI: 1.13
[7]; ZOL with 5FC
  bisphosphonate MICc: 64
[7]; ZOL with AMB
  bisphosphonate MICc: 32
[7]; ZOL with CAS
  bisphosphonate MICc: 16
[7]; ZOL with FLC
  bisphosphonate MICc: 8
[7]; ZOL with ITR
  bisphosphonate MICc: 8
[7]; ZOL with KET
  bisphosphonate MICc: 16
[7]; ZOL with VOR
  bisphosphonate MICc: 8
[8]
  MIC / MEC: 128 µg/mL (≈ 470 µM)
[9]; 5FC:ZOL
  FICI: 2
[9]; AMB:ZOL
  FICI: 3
[9]; CAS:ZOL
  FICI: 1.25
[9]; FLC:ZOL
  FICI: 0.5
[9]; ITR:ZOL
  FICI: 0.27
[9]; KET:ZOL
  FICI: 0.5
[9]; VOR:ZOL
  FICI: 0.38
[9]; ZOL with 5FC
  bisphosphonate MICc: 256
[9]; ZOL with AMB
  bisphosphonate MICc: 256
[9]; ZOL with CAS
  bisphosphonate MICc: 64
[9]; ZOL with FLC
  bisphosphonate MICc: 64
[9]; ZOL with ITR
  bisphosphonate MICc: 4
[9]; ZOL with KET
  bisphosphonate MICc: 64
[9]; ZOL with VOR
  bisphosphonate MICc: 32
[10]
  MIC / MEC: 64 µg/mL (≈ 235 µM)
[11]; 5FC:ZOL
  FICI: ≥4
[11]; AMB:ZOL
  FICI: 0.5
[11]; CAS:ZOL
  FICI: 0.63
[11]; FLC:ZOL
  FICI: 0.63
[11]; ITR:ZOL
  FICI: 0.56
[11]; KET:ZOL
  FICI: 0.56
[11]; VOR:ZOL
  FICI: 0.38
[11]; ZOL with 5FC
  bisphosphonate MICc: 128
[11]; ZOL with AMB
  bisphosphonate MICc: 32
[11]; ZOL with CAS
  bisphosphonate MICc: 16
[11]; ZOL with FLC
  bisphosphonate MICc: 16
[11]; ZOL with ITR
  bisphosphonate MICc: 8
[11]; ZOL with KET
  bisphosphonate MICc: 8
[11]; ZOL with VOR
  bisphosphonate MICc: 16
[12]
  MIC / MEC: 128 µg/mL (≈ 470 µM)
[13]
  MIC / MEC: 64 µg/mL (≈ 235 µM)
[14]
  MIC / MEC: 128 µg/mL (≈ 470 µM)
[15]; 5FC:ZOL
  FICI: 0.38
[15]; AMB:ZOL
  FICI: 0.63
[15]; CAS:ZOL
  FICI: 1
[15]; FLC:ZOL
  FICI: 0.5
[15]; ITR:ZOL
  FICI: 2.09
[15]; KET:ZOL
  FICI: 0.37
[15]; VOR:ZOL
  FICI: 1.54
[15]; ZOL with 5FC
  bisphosphonate MICc: 16
[15]; ZOL with AMB
  bisphosphonate MICc: 16
[15]; ZOL with CAS
  bisphosphonate MICc: 64
[15]; ZOL with FLC
  bisphosphonate MICc: 32
[15]; ZOL with ITR
  bisphosphonate MICc: 1
[15]; ZOL with KET
  bisphosphonate MICc: 16
[15]; ZOL with VOR
  bisphosphonate MICc: 64
[16]; 5FC:ZOL
  FICI: 0.56
[16]; AMB:ZOL
  FICI: 2
[16]; CAS:ZOL
  FICI: 0.2
[16]; FLC:ZOL
  FICI: 0.42
[16]; ITR:ZOL
  FICI: 0.5
[16]; KET:ZOL
  FICI: 0.38
[16]; VOR:ZOL
  FICI: 0.46
[16]; ZOL with 5FC
  bisphosphonate MICc: 0.25
[16]; ZOL with AMB
  bisphosphonate MICc: 4
[16]; ZOL with CAS
  bisphosphonate MICc: 0.125
[16]; ZOL with FLC
  bisphosphonate MICc: 1
[16]; ZOL with ITR
  bisphosphonate MICc: 1
[16]; ZOL with KET
  bisphosphonate MICc: 1
[16]; ZOL with VOR
  bisphosphonate MICc: 1
[17]; 5FC:ZOL
  FICI: 3
[17]; AMB:ZOL
  FICI: 0.75
[17]; CAS:ZOL
  FICI: 0.75
[17]; FLC:ZOL
  FICI: 0.31
[17]; ITR:ZOL
  FICI: 0.38
[17]; KET:ZOL
  FICI: 0.19
[17]; VOR:ZOL
  FICI: 0.28
[17]; ZOL with 5FC
  bisphosphonate MICc: 256
[17]; ZOL with AMB
  bisphosphonate MICc: 64
[17]; ZOL with CAS
  bisphosphonate MICc: 64
[17]; ZOL with FLC
  bisphosphonate MICc: 16
[17]; ZOL with ITR
  bisphosphonate MICc: 32
[17]; ZOL with KET
  bisphosphonate MICc: 32
[17]; ZOL with VOR
  bisphosphonate MICc: 8
[18]
  MIC / MEC: 256 µg/mL (≈ 941 µM)

Source: article PMC12892976, “Alkylation-based optimization of antifungal FPPS inhibitors yields a potent, broad-spectrum lipophilic zoledronate derivative” (mBio, 2025)
